Values after ≈ are worked out from the molar mass of the structure shown. Read-outs that look alike come from different tables or passages of the source. No end group written: not given here.
What was measured:
[1] = system: human colorectal adenocarcinoma cell line HT-29; assay type: cell-based; conditions: 24 hours, maximum 200 μg/ml
Experimental: (§1) The cytotoxic effects of the peptides on different human tumour cells were measured using the MTT colorimetric assay (Mosmann, 1983). […] Dissolved MIT is converted to an insoluble purple formazan by cleavage of the tetrazolium ring by dehydrogenase enzymes. This water insoluble formazan can be solubilized using isopropanol or other solvents and the dissolved material is measured spectrophotometrically. The absorbance was measured as a function of concentration of converted dye. The conversion of the soluble dye to the insoluble purple formazan is utilized in assays for measurement of cell proliferation. […] We used this assay to measure the degree of cell death caused by the peptides. MCF-7 was maintained in EMEM, A2058 in DMEM and […]-29 in RPMI-1640 medium supplemented with 10% heat inactivated […] and 1% L-glutamine-L-alanine in a humidified atmosphere of 5% CO2 at 37° C. The human embryonic fibroblast cell line, MRC-5 (which is normal fibroblasts), was cultured as a monolayer in MEM medium, under the same conditions as described for the tumour cell lines. Cells to be used in the assay were grown to a minimum of 75% confluency, trypsinated and split to single cell suspension, counted and centrifuged at 1500 rpm for 10 min. The cell pellet was resuspended to a concentration of 2×10^5 cells/ml (HT-29) or 1×10^5 (MRC-5, MCF7 and A2058) in DMEM without FBS and L-glutamine-L-alanine (assay-medium). All cell lines were routinely tested for mycoplasma infection using a PCR-based mycoplasma detection kit (MycoSensor PCR Assay Kit, Stratagene), following the supplier's instructions. All cell lines were mycoplasma free. The cytotoxicity was measured using the MTT method (Mosmann, 1983), with minor modifications. Different human tumour cells (1-2×10^5) were applied in 96-well culture plates in a volume of 100 μl DMEM medium and incubated at 37° C. for 24 hours. The medium was removed and the cells were treated with 100 μl of peptide solution (concentrations ranging from 0 to 200 μg/ml), diluted in a) RPMI-1640 medium supplemented with 5% heat inactivated FBS, or b) RPMI-1640 medium without FBS. The plates were incubated at 37° C. for 24 hours. Cells treated with Triton X-100 (1%) was used as positive control (100% killing) whereas cells plus medium only were used as negative control. […] A volume of 70 μl of the supernatant was then removed and […] (0.04 M HCl in isopropanol) added to each well. The plate was placed on a shaker for 1 hour at room temperature and read spectrophotometrically at 590 nm in a microtiter plate reader (DTX880 Multimode Detector, Beckman Coulter).

[2] = system: human skin malignant melanoma cell line A2058; assay type: cell-based; conditions: 24 hours, maximum 200 μg/ml
Experimental: as §1

[3] = system: human breast malignant carcinoma cell line MCF-7; assay type: cell-based; conditions: 24 hours, maximum 200 μg/ml
Experimental: as §1

[4] = system: human embryonic lung fibroblast cell line MRC-5; assay type: cell-based; conditions: normal fibroblasts, 24 hours, maximum 200 μg/ml
Experimental: as §1

E. coli = assay type: cell-based, Escherichia coli; conditions: lowest concentration causing optical density less than 50% of growth control
Experimental: (§2) The Gram-negative bacteria Listonella (Vibrio) anguillarum, serotype O2 (FT 1801, also coded as AL 104/LFI 6004), originally isolated from Atlantic salmon by staff of the Norwegian Veterinary Institute (Oslo, Norway), Escherichia con (ATCC 25922), and the Gram-positive bacteria Staphylococcus aureus (ATCC 9144) and Corynebacterium glutamicum (ATCC 13032) were used as test organisms. All isolates were grown at room temperature in Mueller Hinton Broth (MBB; Difco Laboratories, Detroit, U.S.A).
(§3) The antibacterial activities of the obtained HPLC fractions were determined by continuous monitoring of bacterial growth with a Bioscreen C microbiology reader (Labsystems Oy, Helsinki, Finland). The test was performed in 100-well flat-bottomed honeycomb plates, in which […] of test fractions were incubated with 50 μl of a suspension of an actively growing culture of bacteria diluted to a starting concentration of 5×10^3 cells per well. The growth chamber was maintained at 20° C. during the incubation period. The absorbance was measured at 2 h intervals for 48 h by a turbidometric method with vertical light photometry and a wide band filter (420-580 nm), which is more insensitive to colour change in the sample compared to single wavelength detection. Cecropin P1(0.5 μg/ml) was used as a positive control during these experiments. Antibacterial activity was determined when the optical density (OD) of the growth control (bacteria plus water) reached an absorbance of approximately 0.3. Fractions were regarded as active when the OD was less than 50% of the growth control.
(§4) The polypeptides of the present invention were isolated and subsequently tested for activity. A serial dilution method was employed to examine the antibacterial activity of the peptides. Two Gram-negative bacteria, L. anguillarum and E. coli, and two Gram-positive bacteria, C. glutamicum and S. aureus, were chosen as test bacteria. The polypeptides of the present invention were active against both Gram-positive and Gram-negative bacteria (table 4).

C. glutamicum = assay type: cell-based, Corynebacterium glutamicum; conditions: lowest concentration causing optical density less than 50% of growth control
Experimental: as §2, §3, §4

S. aureus = assay type: cell-based, Staphylococcus aureus; conditions: lowest concentration causing optical density less than 50% of growth control
Experimental: as §2, §3, §4

L. anguillarum = assay type: cell-based, Listonella (Vibrio) anguillarum; conditions: lowest concentration causing optical density less than 50% of growth control
Experimental: as §2, §3, §4

[5] = system: Acinetobacter baumannilii, K15-9; assay type: cell-based; conditions: clinical isolate; 37° C.; 3×10^6 cells per ml
Experimental: (§5) The antibacterial activities of the different peptides were determined by continuous monitoring of bacterial growth with a Bioscreen C microbiology reader (Labsystems Oy, Helsinki, Finland). The test was performed in 100-well flat-bottomed honeycomb plates, in which 50 μl of test fractions were incubated with 50 μl of a suspension of an actively growing culture of bacteria diluted in Mueller Hinton medium to a starting concentration of 3×10^4 cells per ml. The Gram-negative bacteria, Listonella (Vibrio) anguillarum, serotype O2 (FT 1801, a fish pathogenic strain), Pseudomonas aeruginosa and E. coli (ATCC 25922), and the Gram-positive bacteria, C. glutamicum (ATCC 13032) and S. aureus (ATCC 9144), were chosen as test bacteria. The growth chamber was maintained at either 20 or 37° C. during the incubation period. The absorbance was measured at 2 h intervals for 48 h by a turbidometric method with vertical light photometry and a wide band filter (420-580 nm), which is more insensitive to color change in the sample compared to single wavelength detection. Antibacterial activity was determined when the optical density (OD) of the growth control (bacteria plus water) reached an absorbance of 0.3-0.4. Fractions were regarded as active when the OD was less than 50% of the growth control. Polymyxin B (Sigma, St. Louis, Mo., USA), Lactoferricin B, Cecropin P1 and Hyalophora cecropia Cecropin B were used as reference.
(§6) The antimicrobial molecules were also tested against drug resistant clinical isolates, such as the commonly encountered multi-resistant human pathogen S. aureus (MRSA) K15-64 and the glycopeptide (vancomycin)-resistant Enterococccus faecium (GREF) K9-28. The non-clinical isolates Escherichia coli (ATCC 25922), Pseudomonas aeruginosa (ATCC 27853), Corynebacterium glutamicum (ATCC 13032), and Staphylococcus aureus (ATCC 9144) were also tested for comparison. Serial dilutions of synthetic peptides were made in double distilled water and tested according to the method described above. However, in these experiments the starting concentration of bacteria were 3×10^6 cells per ml and the temperature in the growth chamber was 37° C. Polymyxin B was used as positive control for the Gram-negative bacteria.

Pseudomonas K15-60 = assay type: cell-based; conditions: clinical isolate; 37° C.; 3×10^6 cells per ml
Experimental: as §5, §6

Escherichia coli, K15-58 = assay type: cell-based; conditions: clinical isolate; 37° C.; 3×10^6 cells per ml
Experimental: as §5, §6

[6] = system: Citrobacter freundii, K15-75; assay type: cell-based; conditions: clinical isolate; 37° C.; 3×10^6 cells per ml
Experimental: as §5, §6

Klebsiella K15-72 = assay type: cell-based; conditions: clinical isolate; 37° C.; 3×10^6 cells per ml
Experimental: as §5, §6

Salmonella K14-40 = assay type: cell-based; conditions: clinical isolate; 37° C.; 3×10^6 cells per ml
Experimental: as §5, §6

[7] = RPMI-1640 medium containing 5% FBS

Row | Compound | Antitumoral activity IC50, HT-29 [1, 7] | Antitumoral activity IC50, HT-29 ([1]; serum-free RPMI-1640 medium) | Antitumoral activity IC50, A2058 [2, 7] | IC50 ([2]; serum-free RPMI-1640 medium, read-out: Antitumoral activity IC50, A2058) [µM] | Antitumoral activity IC50, MCF-7 [3, 7] | Antitumoral activity IC50, MCF-7 ([3]; serum-free RPMI-1640 medium) | IC50, MRC-5 [4, 7] | IC50 ([4]; serum-free RPMI-1640 medium, read-out: IC50, MRC-5) [µM] | Minimal inhibitory concentration (MIC), E. coli (E. coli) [µM] | Minimal inhibitory concentration (MIC), C. glutamicum (C. glutamicum) [µM] | Minimal inhibitory concentration (MIC), S. aureus (S. aureus) [µM] | Minimal inhibitory concentration (MIC), L. anguillarum (L. anguillarum) [µM] | Minimal inhibitory concentration, Acinetobacter baumannilii, K15-9 [5] [µM] | Minimal inhibitory concentration, Pseudomonas K15-60 (Pseudomonas K15-60) [µM] | Minimal inhibitory concentration, Escherichia coli, K15-58 (Escherichia coli, K15-58) [µM] | Minimal inhibitory concentration, Citrobacter freundii, K15-75 [6] [µM] | Minimal inhibitory concentration, Klebsiella K15-72 (Klebsiella K15-72) [µM] | Minimal inhibitory concentration, Salmonella K14-40 (Salmonella K14-40) [µM]
1 | NC(Cc1c[nH]c2cc(Br)ccc12)C(=O)O [6-D/L-Br-Trp, 6-Bromo-D/L-tryptophan, reference compound] | * (The symbol “*” denotes 30-50% killing at the highest concentration tested.) | * (The symbol “*” denotes 30-50% killing at the highest concentration tested.) | * (The symbol “*” denotes 30-50% killing at the highest concentration tested.) | 655 | * (The symbol “*” denotes 30-50% killing at the highest concentration tested.) | * (The symbol “*” denotes 30-50% killing at the highest concentration tested.) | * (The symbol “*” denotes 30-50% killing at the highest concentration tested.) | 584 |  |  |  |  |  |  |  |  |  | 
2 | CC[C@H](C)[C@@H]1NC(=O)[C@H](CO)NC(=O)[C@@H]2CCCN2C(=O)[C@H](C)NC(=O)CNC(=O)[C@H](CC(C)C)NC(=O)[C@H](CCCCN)NC(=O)[C@H](CCCCN)NC(=O)[C@H](CCSC)NC(=O)[C@H](CCCNC(=N)N)NC(=O)[C@H](Cc2c[nH]c3ccccc23)NC(=O)[C@H](CCC(N)=O)NC(=O)[C@H](Cc2c[nH]c3ccccc23)NC(=O)[C@H](CCCNC(=N)N)NC(=O)[C@H](CCCNC(=N)N)NC(=O)[C@@H](NC(=O)[C@H](CCCCN)NC(=O)[C@@H](N)Cc2ccccc2)CSSC[C@@H](C(=O)N[C@H](C(=O)N[C@@H](CCCNC(=N)N)C(=O)N[C@@H](CCCNC(=N)N)C(=O)N[C@@H](C)C(=O)N[C@@H](Cc2ccccc2)C(=O)O)C(C)C)NC(=O)[C@H]([C@@H](C)O)NC1=O [Lactoferricin B] |  |  |  |  |  |  |  |  | 3.1 (≈ 9.68 µg/mL) | 1.6 (≈ 5 µg/mL) | 6.3 (≈ 19.7 µg/mL) | 3.1 (≈ 9.68 µg/mL) |  |  |  |  |  | 
3 | P20: dimeric polypeptide from S. droebachiensis coelomocytes: first monomer SEQIDNO7, second monomer SEQIDNO8 (chain 1 SXFSRTVHNVGNAVRKGIHAGQGVCSGLGL; chain 2 DLRAICAGAHAL; not fully specified (bridges); X: residue not identified in the source; cysteine pairing not given here; also: heterodimer of two chains; listed as Strongylocentrotus droebachiensis) [Peptide P20] |  |  |  |  |  |  |  |  | 2.5 | 1.3 | 5.0 | 2.5 |  |  |  |  |  | 
4 | Polymyxin B [reference compound] |  |  |  |  |  |  |  |  | 0.8 | 1.6 | 6.3 | 0.8 | 0.78 | 3.12 | 3.12 | 0.78 | 6.25 | 3.12

From US20100093642A1, “NOVEL POLYPEPTIDES” (priority 2006, published 2010)
